CCc1cccc(CC)c1/N=C(C)/C=C(/C)Nc1c(CC)cccc1CC
solubility (mole fraction)
Settings | 268.15 K | 273.15 K | 278.15 K | 283.15 K | 288.15 K | 293.15 K | 298.15 K | 303.15 K | 308.15 K | 313.15 K
in THF | 0.134 | 0.147 | 0.164 | 0.186 | 0.213 | 0.246 | 0.282 | 0.319 | – | –
in diethyl ether | 0.0732 | 0.0961 | 0.123 | 0.152 | 0.184 | 0.215 | 0.248 | 0.283 | – | –
in ethanol | 0.00158 | 0.00186 | 0.0022 | 0.00258 | 0.00315 | 0.00369 | 0.00476 | 0.00595 | 0.00738 | 0.00964
in methanol | 0.0003 | 0.00037 | 0.00047 | 0.00058 | 0.00072 | 0.00089 | 0.0011 | 0.00138 | 0.00173 | 0.0022
in n-hexane | 0.0373 | 0.0478 | 0.0609 | 0.0769 | 0.0964 | 0.12 | 0.148 | 0.182 | 0.223 | 0.271
in toluene | 0.147 | 0.162 | 0.178 | 0.196 | 0.216 | 0.236 | 0.259 | 0.284 | 0.312 | 0.342

Source: BigSolDB 2.1
